Reference: ChEMBL document CHEMBL3045792, “Synthesis, antimicrobial activity, and molecular modeling of novel 4-(3-(4-benzylpiperazin-1-yl)propoxy)-7-methoxy-3-substituted phenyl-2H-chromen-2-one” (2013)
Activity calls are given as the source filed them. The rule behind the calls is not given here.

How the values were obtained:
Assay type in all cases: functional
Exserohilum rostratum [1] = experiment: Antifungal activity against Setosphaeria rostrata assessed as growth inhibition at 900 ug/ml; conditions: read-out: IZ
Staphylococcus aureus [2] = experiment: Antibacterial activity against Staphylococcus aureus assessed as growth inhibition at 600 ug/ml by NCCLS […] method; conditions: read-out: IZ
Fusarium oxysporum [3] = experiment: Antifungal activity against Fusarium oxysporum assessed as growth inhibition at 600 ug/ml
Bacillus subtilis [4] = experiment: Antibacterial activity against Bacillus subtilis assessed as growth inhibition at 600 ug/ml by NCCLS […] method; conditions: read-out: IZ
Klebsiella aerogenes [5] = experiment: Antibacterial activity against Enterobacter aerogenes assessed as growth inhibition at 600 ug/ml by NCCLS […] method; conditions: read-out: IZ
Proteus mirabilis [6] = experiment: Antibacterial activity against Proteus mirabilis assessed as growth inhibition at 900 ug/ml by NCCLS […] method; conditions: read-out: IZ
Fusarium oxysporum [7] = experiment: Antifungal activity against Fusarium oxysporum assessed as growth inhibition at 900 ug/ml
Colletotrichum falcatum [8] = experiment: Antifungal activity against Glomerella tucumanensis assessed as growth inhibition at 600 ug/ml; conditions: read-out: IZ
Klebsiella pneumoniae [9] = experiment: Antibacterial activity against Klebsiella pneumoniae assessed as growth inhibition at 600 ug/ml by NCCLS […] method; conditions: read-out: IZ
Streptococcus pyogenes [10] = experiment: Antibacterial activity against Streptococcus pyogenes assessed as growth inhibition at 600 ug/ml by NCCLS […] method; conditions: read-out: IZ
Proteus vulgaris [11] = experiment: Antibacterial activity against Proteus vulgaris assessed as growth inhibition at 600 ug/ml by NCCLS […] method; conditions: read-out: IZ
Fusarium oxysporum [12] = experiment: Antifungal activity against Fusarium oxysporum assessed as growth inhibition at 1200 ug/ml
Candida albicans [13] = experiment: Antifungal activity against Candida albicans assessed as growth inhibition at 600 ug/ml; conditions: read-out: IZ
Priestia megaterium [14] = experiment: Antibacterial activity against Bacillus megaterium assessed as growth inhibition at 600 ug/ml by NCCLS […] method; conditions: read-out: IZ
Candida albicans [15] = experiment: Antifungal activity against Candida albicans assessed as growth inhibition at 300 ug/ml; conditions: read-out: IZ
Escherichia coli [16] = experiment: Antibacterial activity against Escherichia coli assessed as growth inhibition at 600 ug/ml by NCCLS […] method
Bacillus pumilus [17] = experiment: Antibacterial activity against Bacillus pumilus assessed as growth inhibition at 900 ug/ml by NCCLS […] method
Fusarium oxysporum [18] = experiment: Antifungal activity against Fusarium oxysporum assessed as growth inhibition at 300 ug/ml
Colletotrichum falcatum [19] = experiment: Antifungal activity against Glomerella tucumanensis assessed as growth inhibition at 1200 ug/ml; conditions: read-out: IZ
Proteus vulgaris [20] = experiment: Antibacterial activity against Proteus vulgaris assessed as growth inhibition at 900 ug/ml by NCCLS […] method; conditions: read-out: IZ
Proteus mirabilis [21] = experiment: Antibacterial activity against Proteus mirabilis assessed as growth inhibition at 600 ug/ml by NCCLS […] method; conditions: read-out: IZ
Exserohilum rostratum [22] = experiment: Antifungal activity against Setosphaeria rostrata assessed as growth inhibition at 300 ug/ml; conditions: read-out: IZ
Colletotrichum falcatum [23] = experiment: Antifungal activity against Glomerella tucumanensis assessed as growth inhibition at 300 ug/ml; conditions: read-out: IZ
Staphylococcus aureus [24] = experiment: Antibacterial activity against Staphylococcus aureus assessed as growth inhibition at 900 ug/ml by NCCLS […] method; conditions: read-out: IZ
Escherichia coli [25] = experiment: Antibacterial activity against Escherichia coli assessed as growth inhibition at 900 ug/ml by NCCLS […] method
Priestia megaterium [26] = experiment: Antibacterial activity against Bacillus megaterium assessed as growth inhibition at 900 ug/ml by NCCLS […] method; conditions: read-out: IZ
Klebsiella pneumoniae [27] = experiment: Antibacterial activity against Klebsiella pneumoniae assessed as growth inhibition at 900 ug/ml by NCCLS […] method; conditions: read-out: IZ
Colletotrichum falcatum [28] = experiment: Antifungal activity against Glomerella tucumanensis assessed as growth inhibition at 900 ug/ml; conditions: read-out: IZ
Klebsiella aerogenes [29] = experiment: Antibacterial activity against Enterobacter aerogenes assessed as growth inhibition at 900 ug/ml by NCCLS […] method; conditions: read-out: IZ
Exserohilum rostratum [30] = experiment: Antifungal activity against Setosphaeria rostrata assessed as growth inhibition at 1200 ug/ml; conditions: read-out: IZ
Candida albicans [31] = experiment: Antifungal activity against Candida albicans assessed as growth inhibition at 900 ug/ml; conditions: read-out: IZ
Streptococcus pyogenes [32] = experiment: Antibacterial activity against Streptococcus pyogenes assessed as growth inhibition at 900 ug/ml by NCCLS […] method; conditions: read-out: IZ
Bacillus subtilis [33] = experiment: Antibacterial activity against Bacillus subtilis assessed as growth inhibition at 900 ug/ml by NCCLS […] method; conditions: read-out: IZ
Candida albicans [34] = experiment: Antifungal activity against Candida albicans assessed as growth inhibition at 1200 ug/ml; conditions: read-out: IZ
Bacillus pumilus [35] = experiment: Antibacterial activity against Bacillus pumilus assessed as growth inhibition at 600 ug/ml by NCCLS […] method
Exserohilum rostratum [36] = experiment: Antifungal activity against Setosphaeria rostrata assessed as growth inhibition at 600 ug/ml; conditions: read-out: IZ

Row | SMILES | zone of inhibition at 900 µg/mL (Exserohilum rostratum [1]) [mm] | zone of inhibition at 600 µg/mL (Staphylococcus aureus [2]) [mm] | zone of inhibition at 600 µg/mL (Bacillus subtilis [4]) [mm] | zone of inhibition at 600 µg/mL (Klebsiella aerogenes [5]) [mm] | zone of inhibition at 900 µg/mL (Proteus mirabilis [6]) [mm] | zone of inhibition at 600 µg/mL (Colletotrichum falcatum [8]) [mm] | zone of inhibition at 600 µg/mL (Klebsiella pneumoniae [9]) [mm] | zone of inhibition at 600 µg/mL (Streptococcus pyogenes [10]) [mm] | zone of inhibition at 600 µg/mL (Proteus vulgaris [11]) [mm] | zone of inhibition at 600 µg/mL (Candida albicans [13]) [mm] | zone of inhibition at 600 µg/mL (Priestia megaterium [14]) [mm] | zone of inhibition at 300 µg/mL (Candida albicans [15]) [mm] | zone of inhibition at 1200 µg/mL (Colletotrichum falcatum [19]) [mm] | zone of inhibition at 900 µg/mL (Proteus vulgaris [20]) [mm] | zone of inhibition at 600 µg/mL (Proteus mirabilis [21]) [mm] | zone of inhibition at 300 µg/mL (Exserohilum rostratum [22]) [mm] | zone of inhibition at 300 µg/mL (Colletotrichum falcatum [23]) [mm] | zone of inhibition at 900 µg/mL (Staphylococcus aureus [24]) [mm] | zone of inhibition at 900 µg/mL (Priestia megaterium [26]) [mm] | zone of inhibition at 900 µg/mL (Klebsiella pneumoniae [27]) [mm] | further results
1 | COc1ccc(CN2CCN(CCCOc3c(-c4ccccc4)c(=O)oc4cc(OC)ccc34)CC2)cc1 | 15 | 3 | 4.28 | 4.24 | 10.5 | 8.62 | 5.48 | 2.08 | 2 | 5.62 | 4.26 | 2.76 | 31.8 | 4.25 | 5.25 | 3.8 | 4.08 | 6.25 | 8.19 | 10.1 | growth inhibition (GI) (Fusarium oxysporum [3]): inactive; growth inhibition (GI) (Fusarium oxysporum [7]): inactive; growth inhibition (GI) (Fusarium oxysporum [12]): inactive; growth inhibition (GI) (Escherichia coli [16]): inactive; zone of inhibition at 900 µg/mL (Bacillus pumilus [17]; read-out: IZ): 10.5 mm; growth inhibition (GI) (Fusarium oxysporum [18]): inactive; growth inhibition (GI) (Escherichia coli [25]): inactive; zone of inhibition at 900 µg/mL (Colletotrichum falcatum [28]): 17 mm; zone of inhibition at 900 µg/mL (Klebsiella aerogenes [29]): 8.9 mm; zone of inhibition at 1200 µg/mL (Exserohilum rostratum [30]): 28.8 mm; zone of inhibition at 900 µg/mL (Candida albicans [31]): 11 mm; zone of inhibition at 900 µg/mL (Streptococcus pyogenes [32]): 4.19 mm; zone of inhibition at 900 µg/mL (Bacillus subtilis [33]): 8.9 mm; zone of inhibition at 1200 µg/mL (Candida albicans [34]): 23.2 mm; zone of inhibition at 600 µg/mL (Bacillus pumilus [35]; read-out: IZ): 5.25 mm; zone of inhibition at 600 µg/mL (Exserohilum rostratum [36]): 7.56 mm
2 | COc1ccc2c(OCCCN3CCN(Cc4cccnc4)CC3)c(-c3ccccc3)c(=O)oc2c1 | 11.9 | 11.6 | 8.76 | 4.22 | 21.6 | 7.76 | 3.78 | 9.12 | 8.76 | 6.14 | 7.65 | 3.21 | 27 | 17.1 | 11.3 | 2.9 | 4.45 | 21.4 | 13.4 | 7.93 | zone of inhibition at 600 µg/mL (Fusarium oxysporum [3]; read-out: IZ): 8.78 mm; zone of inhibition at 900 µg/mL (Fusarium oxysporum [7]; read-out: IZ): 18.8 mm; zone of inhibition at 1200 µg/mL (Fusarium oxysporum [12]; read-out: IZ): 27.9 mm; zone of inhibition at 600 µg/mL (Escherichia coli [16]; read-out: IZ): 3.87 mm; growth inhibition (GI) (Bacillus pumilus [17]): inactive; zone of inhibition at 300 µg/mL (Fusarium oxysporum [18]; read-out: IZ): 3.47 mm; zone of inhibition at 900 µg/mL (Escherichia coli [25]; read-out: IZ): 6.21 mm; zone of inhibition at 900 µg/mL (Colletotrichum falcatum [28]): 13.2 mm; zone of inhibition at 900 µg/mL (Klebsiella aerogenes [29]): 8.56 mm; zone of inhibition at 1200 µg/mL (Exserohilum rostratum [30]): 23.4 mm; zone of inhibition at 900 µg/mL (Candida albicans [31]): 13.7 mm; zone of inhibition at 900 µg/mL (Streptococcus pyogenes [32]): 16.8 mm; zone of inhibition at 900 µg/mL (Bacillus subtilis [33]): 15.1 mm; zone of inhibition at 1200 µg/mL (Candida albicans [34]): 24.6 mm; growth inhibition (GI) (Bacillus pumilus [35]): inactive; zone of inhibition at 600 µg/mL (Exserohilum rostratum [36]): 6.76 mm
